Test results published in paper PMC11302729, “Repurposing Hsp90 inhibitors as antimicrobials targeting two-component systems identifies compounds leading to loss of bacterial membrane integrity” (Microbiology Spectrum, 2024).
In brackets after ≈: the same amount, converted by molar mass. Several values for one entry are separate records, joined by “and”; a condition that tells them apart may be missing. Equal values may be shown once. Read-outs that look alike come from different tables or passages of the source. No end group written: not given here.

Assays:
Type in all cases: cell-based
[1] = system: Staphylococcus aureus str. Newman; assay: Minimal inhibitory concentration (microdilution) against S. aureus; details: for MIC S. aureus: Table ST3
Description: (§1) Staphylococcus aureus str. Newman, Enterococcus faecalis vanA (strain E0155), Enterococcus faecium vanA (strain E1654), Escherichia coli ATCC 25922, Escherichia coli D21f2 with a truncated LPS barrier, Escherichia coli JW5503 (ΔtolC) ([49]), Pseudomonas aeruginosa ATCC 27853, and Pasteurella haemolytica ATCC 29701 were grown in Mueller-Hinton Broth (MHB) (Oxoid, Basingstoke, UK) and incubated at 37°C.
(§2) The minimal inhibitory concentration was determined using the microdilution method following the guidelines of the European Committee on Antimicrobial Susceptibility Testing ([50]). Briefly, a series of twofold dilutions in MHB of each compound were made in a 96-well plate, with final concentrations ranging from 50 to 0.39 µg/mL in 100 µL final volume per well. A hundred microliters of 1:100 dilution of an overnight culture of the correspondent bacteria in MHB was added to each well. Plates were incubated for 18 hours at 37°C. MIC was recorded as the lowest concentration where no growth was detected as measured by optical density at 600 nm (OD600) using Spectramax M5 (Molecular Devices LLC, San Jose, CA, USA). […] Wells containing bacteria with or without 1% DMSO and medium alone were included as controls in every plate.

[2] = in vitro; details: human
Description: (§3) HEK293 cells and the human hepatocellular carcinoma cells (HepG2) were routinely cultured in 75-cm^2 culture flasks (Corning Incorporated) on high-glucose Dulbecco’s modified Eagle medium (DMEM) containing glutaMax and phenol red (Gibco) supplemented with 1% penicillin/streptomycin (Gibco) and 10% fetal bovine serum (FBS) (Gibco). Cells were maintained at 37°C and 5% CO2.
(§4) Cytotoxicity assays with HEK293 and HepG2 cells were performed in 96-well plates seeded with 5 × 10^4 cells/well and incubated for 24 hours to reach 80%–90% confluency. Exterior wells were filled with only medium to prevent evaporation. Culture medium was removed from the cells, and 100 µL of exposure medium [high-glucose DMEM without phenol red (Gibco)] was added to avoid a potential interaction between FBS components or antibiotics and tested compounds. A twofold dilution series of compounds in exposure medium (range 100–3.2 μg/mL) was made in a separate 96-well plate, and 100 µL of each of these dilutions was added to the assay plates for 24 hours at 37°C in the presence of 5% CO2. Control wells contained cells with DMEM, DMEM + 1% DMSO (vehicle control), or DMEM + 20% DMSO. Wells without cells were also included as negative control. After exposure, the medium was replaced with 100 µL 10% Alamar Blue (Invitrogen) in exposure medium. After 45 min incubation at 37°C and 5% CO2, fluorescence was measured on a Spectramax M5 plate reader at λex = 541 nm, λem = 590 nm. Cell viability compared with the vehicle control was calculated, and inhibition curves for each compound were fitted (non-linear curve fit, four variables, bottom constrained = 0) in Prism 9 (GraphPad Software, San Diego, USA).

[3] = system: HEK293 cells; assay: in vitro; details: LC50/MIC (HEK293 / S. aureus)
Description: as §3, §4

[4] = system: Enterococcus faecium vanA (strain E1654); assay: MIC (microdilution) against E. faecium; details: Enterococcus faecium, read-out: MIC E. faecium
Description: as §1, §2

[5] = system: Enterococcus faecalis vanA (strain E0155); assay: MIC (microdilution) against E. faecalis; details: Enterococcus faecalis, read-out: MIC E. faecalis
Description: as §1, §2

[6] = system: Pasteurella haemolytica ATCC 29701; assay: MIC (microdilution) against P. haemolytica; details: Mannheimia haemolytica, ATCC29701, read-out: MIC P. haemolytica, Table ST1
Description: as §1, §2

[7] = system: Pseudomonas aeruginosa ATCC 27853; assay: MIC (microdilution) against P. aeruginosa; details: Pseudomonas aeruginosa
Description: as §1, §2

[8] = system: Escherichia coli ATCC 25922; assay: MIC (microdilution) against E. coli; details: Escherichia coli
Description: as §1, §2

[9] = system: Escherichia coli JW5503 (ΔtolC); assay: MIC (microdilution) against E. coli JW5503; details: Escherichia coli, read-out: MIC E. coli JW5503
Text: (§5) We also tested the inhibitory activity of compounds in two different E. coli mutants: (i) E. coli JW5503 that lacks TolC efflux pumps and (ii) E. coli D21f2 that has a defective LPS inner core increasing permeability of the outer membrane. E. coli D21f2 has a slightly higher susceptibility to DPP compounds than E. coli ATCC25922.
as §1, §2

[10] = system: S. aureus str. Newman; assay: Membrane permeability using SYTOX-Green, flow cytometry; details: for % FITC stained bacteria 0.5 xMIC: 0.5× MIC; for % FITC stained bacteria 1 xMIC / Loss of membrane integrity: 1× MIC; for Membrane damage: if considered to cause membrane damage to S. aureus
Description: S. aureus str. Newman was grown to exponential phase (OD600 = 0.4) in MHB media. […] Nisin (Sigma-Aldrich) and novobiocin (Sigma-Aldrich) were used as positive and negative controls for membrane permeabilization, and stained and unstained untreated controls were also included in each assay. After exposure, samples were centrifuged at 4,000 r.p.m. for 5 min and resuspended in PBS. Bacteria were dyed by adding the fluorescent nuclear stain SYTOX Green (Molecular Probes, Invitrogen) to a final concentration of 0.5 µM and incubating for 5 min in the dark. Samples were centrifuged again and resuspended with PBS to remove unbound stain. Three hundred microliters of each sample was transferred to a clean well in a 96-well clear-bottom plate (Corning Incorporated). Fluorescence was measured in CytoFLEX flow cytometer (Beckman Coulter, Brea, CA, USA) using the green (FITC) channel with the excitation wavelength at 488 nm. Overlay histograms were created with CytExpert Software (Beckman Coulter, Brea, CA, USA).

[11] = system: Escherichia coli D21f2 with a truncated LPS barrier; assay: MIC (microdilution) against E. coli D21f2; details: read-out: MIC E coli D21f2
Text: as §5, §1, §2

[12] = Staphylococcus aureus, NEWMAN, Fig 2
[13] = Staphylococcus aureus, NEWMAN, Fig 2, value in parentheses
[14] = Table ST3, value in parentheses
[15] = ATCC27853, Table ST1, read-out: MIC P. aeruginosa
[16] = ATCC25922, Table ST1, read-out: MIC E. coli

Molecule | MIC [1, 12] | MIC [1, 13] | MIC S. aureus [1] | MIC [1, 14] | CC50 at 24 h [2] | Selectivity Index [3] | MIC [4] | MIC [5] | MIC [6] | MIC [7, 15] | MIC [8, 16] | MIC [9] | % FITC stained bacteria 0.5 xMIC ([10]; 5 min exposure) | % FITC stained bacteria 1 xMIC ([10]; 5 min exposure) | % FITC stained bacteria 2 xMIC ([10]; 2× MIC, 5 min exposure) | further results
COc1ccc(-c2[nH]nc(C(F)(F)F)c2-c2ccc(OC)c(OC)c2)c(O)c1 [DPP-19] | 25 µg/mL | 63.3 µM | 25 µg/mL (≈ 63.4 µM) | 63.29 µM | 13.7 µg/mL and 34.6 µM | 0.55 | 50 µg/mL (≈ 127 µM) | 50 µg/mL (≈ 127 µM) | > 250 µg/mL | > 250 µg/mL | > 250 µg/mL | 12.5 µg/mL (≈ 31.7 µM) | – | – | – | –
COc1ccc(-c2[nH]nc(C(F)(F)F)c2-c2ccccc2OC)c(O)c1 [DPP-17] | 25 µg/mL | 68.5 µM | 25 µg/mL (≈ 68.6 µM) | 68.49 µM | 12.6 µg/mL and 34.5 µM | 0.50 | > 250 µg/mL | – | 50 µg/mL (≈ 137 µM) | – | – | 6.25 µg/mL (≈ 17.2 µM) | – | – | – | MIC ([5]; 18 h): > 250 µg/mL; MIC ([7]; ATCC27853, read-out: MIC P. aeruginosa): > 250 µg/mL; MIC ([8]; ATCC25922, read-out: MIC E. coli): > 250 µg/mL
COc1ccccc1-c1c(C(F)(F)F)n[nH]c1-c1ccc(O)cc1O [DPP-16] | 25 µg/mL | 71.4 µM | 25 µg/mL (≈ 71.4 µM) | 71.43 µM | 16.4 µg/mL and 46.7 µM | 0.65 | 50 µg/mL (≈ 143 µM) | 50 µg/mL (≈ 143 µM) | 50 µg/mL (≈ 143 µM) | > 250 µg/mL | > 250 µg/mL | 3.13 µg/mL (≈ 8.94 µM) | – | – | – | –
COc1ccc(-c2c(C(F)(F)F)n[nH]c2-c2ccc(O)cc2O)cc1OC [DPP-18] | 50 µg/mL | 132 µM | 50 µg/mL (≈ 131 µM) | 131.58 µM | 22.8 µg/mL and 60 µM | 0.45 | 50 µg/mL (≈ 131 µM) | 50 µg/mL (≈ 131 µM) | > 250 µg/mL | > 250 µg/mL | > 250 µg/mL | 6.25 µg/mL (≈ 16.4 µM) | – | – | – | –
Nisin: positive control for membrane permeabilization (ITSISLCTPGCKTGALMGCNMKTATCHCSIHVSK; ends and bridges not checked; also: lantibiotic nisin A: dehydrated residues and lanthionine rings not given here; UniProt P13068 24-57, looked up) [reference compound] | – | – | – | – | – | – | – | – | – | – | – | – | 16.37% | 53.32% | 59.41% | –
Cc1n[nH]c(-c2ccc(O)cc2O)c1-c1ccc(Cl)cc1 [DPP-9] | 25 µg/mL | 83.3 µM | 25 µg/mL (≈ 83.1 µM) | 83.33 µM | – | 0.49 | 25 µg/mL (≈ 83.1 µM) | 25 µg/mL (≈ 83.1 µM) | 25 µg/mL (≈ 83.1 µM) | > 250 µg/mL | > 250 µg/mL | 12.5 µg/mL (≈ 41.6 µM) | 38.22% | 41.34% | 43.78% | MIC [11]: 50 µg/mL (≈ 166 µM); Membrane damage [10]: YES
COc1ccc(-c2c(C(F)(F)F)n[nH]c2-c2ccc(OCc3ccccc3)cc2O)cc1 [DPP-15] | 3.12 µg/mL | 7.09 µM | 3.12 µg/mL (≈ 7.08 µM) | 7.09 µM | 9.64 µg/mL and 21.9 µM | 3.10 | 1.56 µg/mL (≈ 3.54 µM) | 1.56 µg/mL (≈ 3.54 µM) | > 250 µg/mL | > 250 µg/mL | > 250 µg/mL | 3.12 µg/mL (≈ 7.08 µM) | 9.29% | 13.68% | 18.42% | Loss of membrane integrity ([10]; 5 min exposure): did not cause significant loss of membrane integrity
Oc1cc(OCc2ccccc2)ccc1-c1[nH]nc(C(F)(F)F)c1-c1ccccc1 [DPP-4] | 1.56 µg/mL | 3.8 µM | 1.56 µg/mL (≈ 3.8 µM) | 3.80 µM | 7.26 µg/mL and 17.7 µM | 4.65 | 3.12 µg/mL (≈ 7.6 µM) | 3.12 µg/mL (≈ 7.6 µM) | 125 µg/mL (≈ 305 µM) | > 250 µg/mL | > 250 µg/mL | 6.25 µg/mL (≈ 15.2 µM) | 7.94% | 14.15% | 19.78% | MIC [11]: > 50 µg/mL; Loss of membrane integrity ([10]; 5 min exposure): did not cause significant loss of membrane integrity
Oc1ccc(-c2[nH]nc(C(F)(F)F)c2-c2ccccc2)c(O)c1 [DPP-1] | 6.25 µg/mL | 19.5 µM | 6.25 µg/mL (≈ 19.5 µM) | 19.53 µM | – | 0.65 | 12.5 µg/mL (≈ 39 µM) | 12.5 µg/mL (≈ 39 µM) | 25 µg/mL (≈ 78.1 µM) | > 250 µg/mL | > 250 µg/mL | 1.56 µg/mL (≈ 4.87 µM) | 30.46% | 39.72% | 46.63% | Membrane damage [10]: YES
CO[C@@H]1[C@@H](OC(N)=O)[C@@H](O)[C@H](Oc2ccc3c(O)c(NC(=O)c4ccc(O)c(CC=C(C)C)c4)c(=O)oc3c2C)OC1(C)C [Novobiocin, reference compound] | – | – | – | – | – | – | – | – | – | – | – | – | 8.28% | 12.62% | 13.17% | Effect on membrane integrity ([10]; 2× MIC, 5 min exposure): no effect on membrane integrity
COc1ccc(-c2[nH]nc(C)c2-c2ccc(Cl)cc2)c(O)c1 [DPP-10] | 25 µg/mL | 79.4 µM | 25 µg/mL (≈ 79.4 µM) | 79.37 µM | – | 0.93 | 250 µg/mL (≈ 794 µM) | 250 µg/mL (≈ 794 µM) | 62.5 µg/mL (≈ 199 µM) | > 250 µg/mL | > 250 µg/mL | 6.25 µg/mL (≈ 19.9 µM) | 28.57% | 37.28% | 40.99% | MIC [11]: 250 µg/mL (≈ 794 µM); Membrane damage [10]: YES
